One series addresses T1, JAK3(h) (Homo sapiens, UniProt P52333).
T1 construct: purchased Eurofins (UK)
T1 sequence (P52333 1-1124): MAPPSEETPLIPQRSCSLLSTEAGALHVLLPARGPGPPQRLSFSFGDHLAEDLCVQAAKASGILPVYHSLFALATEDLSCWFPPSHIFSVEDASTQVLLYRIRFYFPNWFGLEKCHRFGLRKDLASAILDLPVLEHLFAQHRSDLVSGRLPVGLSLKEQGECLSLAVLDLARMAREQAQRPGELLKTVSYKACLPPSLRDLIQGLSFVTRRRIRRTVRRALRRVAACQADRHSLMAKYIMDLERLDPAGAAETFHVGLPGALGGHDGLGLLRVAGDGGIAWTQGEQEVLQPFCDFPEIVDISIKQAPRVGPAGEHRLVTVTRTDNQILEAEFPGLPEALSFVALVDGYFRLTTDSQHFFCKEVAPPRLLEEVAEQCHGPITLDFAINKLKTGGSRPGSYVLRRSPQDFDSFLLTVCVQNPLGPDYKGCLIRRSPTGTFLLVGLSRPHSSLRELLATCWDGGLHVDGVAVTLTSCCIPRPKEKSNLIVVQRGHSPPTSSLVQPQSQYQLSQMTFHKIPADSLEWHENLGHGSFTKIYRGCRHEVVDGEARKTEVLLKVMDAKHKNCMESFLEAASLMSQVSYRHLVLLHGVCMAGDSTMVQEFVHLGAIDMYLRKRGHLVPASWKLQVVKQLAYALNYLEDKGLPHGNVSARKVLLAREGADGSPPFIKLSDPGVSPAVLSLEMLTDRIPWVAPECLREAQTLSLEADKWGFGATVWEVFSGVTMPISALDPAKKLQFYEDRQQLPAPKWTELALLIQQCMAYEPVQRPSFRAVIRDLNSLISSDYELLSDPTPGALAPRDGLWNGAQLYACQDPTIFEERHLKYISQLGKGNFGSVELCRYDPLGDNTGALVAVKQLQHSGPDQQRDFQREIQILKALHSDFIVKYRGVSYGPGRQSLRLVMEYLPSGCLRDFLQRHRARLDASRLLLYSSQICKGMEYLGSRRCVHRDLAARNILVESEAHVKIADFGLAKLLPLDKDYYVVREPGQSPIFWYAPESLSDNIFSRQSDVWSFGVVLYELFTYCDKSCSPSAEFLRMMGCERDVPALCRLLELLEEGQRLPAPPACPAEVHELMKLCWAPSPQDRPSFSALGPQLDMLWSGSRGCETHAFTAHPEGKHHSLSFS
In words: In vitro activity test of JAK3 kinase ([γ-33P]-ATP filter assay, Eurofins). The series is classed as biochemical. How it is done: Recombinant human JAK1, JAK2, JAK3, and Tyk2 proteases, along with major instruments and reagents, were provided by Eurofins in the UK. JAK2, JAK3, and TYK2 were diluted with: 20 mM 3-(N-morpholino)propanesulfonic acid (MOPS), 1 mM EDTA, 0.01% Brij-35.5% glycerol, 0.1% β-mercaptoethanol, 1 mg/mL BSA; JAK1 was diluted with: 20 mM TRIS, 0.2 mM EDTA, 0.1% β-mercaptoethanol, 0.01% Brij-35.5% glycerol. The compound of formula (I) was prepared as a 100% DMSO solution and diluted to 50 times the final assay concentration. The test compound was subjected to a 3-fold serial dilution, with final concentrations ranging from 10 µM to 0.001 µM across 9 concentrations, and the DMSO content in the detection reaction was 2%. The working stock solution of this compound was added as the first component of the reaction to the assay wells, followed by the addition of the remaining components according to the protocol detailed below. JAK3(h) was incubated with 8 mM MOPS pH 7.0, 0.2 mM EDTA, 500 µM GGEEEEYFELVKKKK, 10 mM magnesium acetate, and [γ-^33P]-ATP (activity and concentration were adjusted as needed). The reaction was initiated by adding the Mg/ATP mixture and incubated at room temperature for 40 minutes, then terminated by adding 0.5% phosphoric acid. […] The IC50 results were analyzed using XLFIT5 (205 formula) from IDBS, as detailed in Table 12. […]

For a further series, the system named is paw swelling. In words: Paw swelling and scores in mice after oral administration (only summarised, no method given). Format: in vivo.
The next series deals with T2, JAK2(h) (Homo sapiens, UniProt O60674).
T2 construct: purchased Eurofins (UK)
T2 sequence (O60674 whole entry): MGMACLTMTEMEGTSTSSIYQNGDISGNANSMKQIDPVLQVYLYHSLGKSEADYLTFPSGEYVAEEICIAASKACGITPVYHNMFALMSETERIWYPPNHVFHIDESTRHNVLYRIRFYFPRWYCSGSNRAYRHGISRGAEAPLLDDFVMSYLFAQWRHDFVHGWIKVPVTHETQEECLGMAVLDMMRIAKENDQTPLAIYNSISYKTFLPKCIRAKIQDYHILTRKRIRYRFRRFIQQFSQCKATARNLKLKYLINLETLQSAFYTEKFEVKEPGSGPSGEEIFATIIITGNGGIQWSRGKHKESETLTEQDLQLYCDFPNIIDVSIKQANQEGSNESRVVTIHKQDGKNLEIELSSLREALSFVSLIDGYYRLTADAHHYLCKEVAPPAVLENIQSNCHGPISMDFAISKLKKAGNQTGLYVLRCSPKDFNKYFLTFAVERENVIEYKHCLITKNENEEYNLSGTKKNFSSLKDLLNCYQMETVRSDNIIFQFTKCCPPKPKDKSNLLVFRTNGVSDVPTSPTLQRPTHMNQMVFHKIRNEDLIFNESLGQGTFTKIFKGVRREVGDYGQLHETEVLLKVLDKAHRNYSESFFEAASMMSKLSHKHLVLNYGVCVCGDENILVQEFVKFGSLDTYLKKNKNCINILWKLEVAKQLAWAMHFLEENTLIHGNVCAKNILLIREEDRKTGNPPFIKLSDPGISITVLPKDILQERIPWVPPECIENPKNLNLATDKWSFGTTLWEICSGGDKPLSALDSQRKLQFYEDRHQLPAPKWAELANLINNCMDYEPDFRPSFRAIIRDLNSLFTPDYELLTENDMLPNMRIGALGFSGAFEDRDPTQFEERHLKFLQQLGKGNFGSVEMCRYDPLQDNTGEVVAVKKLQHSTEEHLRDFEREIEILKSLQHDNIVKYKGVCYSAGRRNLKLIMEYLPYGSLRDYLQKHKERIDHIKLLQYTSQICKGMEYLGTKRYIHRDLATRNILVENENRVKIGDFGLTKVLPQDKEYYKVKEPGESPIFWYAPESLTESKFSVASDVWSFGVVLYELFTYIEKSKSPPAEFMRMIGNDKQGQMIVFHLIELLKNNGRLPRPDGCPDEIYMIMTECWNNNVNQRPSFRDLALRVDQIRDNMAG
In words: In vitro activity test of JAK2 kinase ([γ-33P]-ATP filter assay, Eurofins). The series is classed as biochemical. As to the method:
(§1) Recombinant human JAK1, JAK2, JAK3, and Tyk2 proteases, along with major instruments and reagents, were provided by Eurofins in the UK.
(§2) JAK2, JAK3, and TYK2 were diluted with: 20 mM 3-(N-morpholino)propanesulfonic acid (MOPS), 1 mM EDTA, 0.01% Brij-35.5% glycerol, 0.1% β-mercaptoethanol, 1 mg/mL BSA; JAK1 was diluted with: 20 mM TRIS, 0.2 mM EDTA, 0.1% β-mercaptoethanol, 0.01% Brij-35.5% glycerol. The compound of formula (I) was prepared as a 100% DMSO solution and diluted to 50 times the final assay concentration. The test compound was subjected to a 3-fold serial dilution, with final concentrations ranging from 10 µM to 0.001 µM across 9 concentrations, and the DMSO content in the detection reaction was 2%. The working stock solution of this compound was added as the first component of the reaction to the assay wells, followed by the addition of the remaining components according to the protocol detailed below.
JAK2(h) was incubated with 8 mM MOPS pH 7.0, 0.2 mM EDTA, 100 µM […], 10 mM magnesium acetate, and [γ-^33P]-ATP (prepared to the required activity and concentration). The reaction was initiated by adding the Mg/ATP mixture and incubated at room temperature for 40 minutes, then terminated by adding 0.5% phosphoric acid. […]
(§3) The IC50 results were analyzed using XLFIT5 (205 formula) from IDBS, as detailed in Table 12. […]

A further series concerns the target T3, JAK1(h) (Homo sapiens, UniProt P23458).
T3 construct: purchased Eurofins (UK)
As to the kind of experiment: In vitro activity test of JAK1 kinase ([γ-33P]-ATP filter assay, Eurofins). The series is classed as biochemical. How it is done:
as §1, §2
JAK1(h) was incubated with 20 mM Tris/HCl pH 7.5, 0.2 mM EDTA, 500 µM MGEEPLYWSFPAKKK, 10 mM magnesium acetate, and [γ-^33P]-ATP (activity and concentration adjusted as needed). The reaction was initiated by adding the Mg/ATP mixture and incubated at room temperature for 40 minutes, then terminated by adding 0.5% phosphoric acid. […]
as §3

T3 sequence (P23458 whole entry): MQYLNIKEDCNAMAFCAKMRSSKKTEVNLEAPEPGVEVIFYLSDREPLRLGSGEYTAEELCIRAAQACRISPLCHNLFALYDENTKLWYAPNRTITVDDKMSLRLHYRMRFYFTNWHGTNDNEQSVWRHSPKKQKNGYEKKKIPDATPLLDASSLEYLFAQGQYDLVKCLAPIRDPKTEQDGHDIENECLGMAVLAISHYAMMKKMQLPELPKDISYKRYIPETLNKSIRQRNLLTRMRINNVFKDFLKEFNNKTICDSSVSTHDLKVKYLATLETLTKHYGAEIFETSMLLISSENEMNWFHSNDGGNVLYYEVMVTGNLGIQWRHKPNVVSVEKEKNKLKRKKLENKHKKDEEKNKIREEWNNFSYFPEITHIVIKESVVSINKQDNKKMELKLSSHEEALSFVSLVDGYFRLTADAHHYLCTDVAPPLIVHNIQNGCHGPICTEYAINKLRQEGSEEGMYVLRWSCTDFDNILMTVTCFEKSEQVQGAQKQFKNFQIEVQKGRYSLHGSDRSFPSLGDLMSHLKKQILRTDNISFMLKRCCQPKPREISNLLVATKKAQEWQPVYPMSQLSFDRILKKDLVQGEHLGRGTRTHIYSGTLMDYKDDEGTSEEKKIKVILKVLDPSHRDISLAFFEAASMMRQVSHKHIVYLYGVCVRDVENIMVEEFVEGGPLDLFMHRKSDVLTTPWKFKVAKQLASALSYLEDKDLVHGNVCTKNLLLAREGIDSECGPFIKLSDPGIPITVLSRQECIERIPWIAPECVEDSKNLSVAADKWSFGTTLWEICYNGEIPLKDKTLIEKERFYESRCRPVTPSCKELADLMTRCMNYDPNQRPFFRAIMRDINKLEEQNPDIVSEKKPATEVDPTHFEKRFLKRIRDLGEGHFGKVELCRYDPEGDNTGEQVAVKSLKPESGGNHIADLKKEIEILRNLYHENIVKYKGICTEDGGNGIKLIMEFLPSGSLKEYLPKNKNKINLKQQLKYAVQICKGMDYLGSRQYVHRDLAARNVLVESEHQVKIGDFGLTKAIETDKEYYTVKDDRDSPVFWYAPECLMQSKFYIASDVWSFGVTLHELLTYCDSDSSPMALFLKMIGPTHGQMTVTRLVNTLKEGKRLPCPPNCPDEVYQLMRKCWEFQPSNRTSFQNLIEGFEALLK

`Cn1cc(-c2cn3nccc3c(-c3cnn([C@]4(CC#N)CC5(C[C@H](C#N)C5)C4)c3)n2)cn1` (stereo partly drawn) [Compound of formula (I)] gave a concentration for half-maximal inhibition (IC50) on JAK3(h) of 189 nM. Besides, in the series on paw swelling, the “degree of paw swelling (in words)” value is “significantly improve”; the “effect on animal body weight (in words)” value was “no significant effect”; the “scores and relative scores (in words)” value is listed as “ameliorate”. This molecule also displayed an IC50 at JAK2(h) of 4 nM. On JAK1(h), this molecule had an IC50 of 10 nM.

As a reminder, the IC50 is the point on the concentration scale where inhibition reaches its midpoint. A lower IC50 goes with greater potency in that assay.

For the origin of these results see patent EP4711367A1, “PYRAZOLOPYRAZINE COMPOUND AND METHOD FOR PREPARING CRYSTAL FORM THEREOF” (CMS Research & Development Pte. Ltd., priority 2023, dated 2024).
